# Laboratory results taken from US11480583B2, “Method for the diagnosis and treatment of essential primary hypertension” (Universiteit Maastricht, priority 2020, dated 2022).
# “Also recorded” adds a separate entry of the source.
# Assays:
# [1] = system: femoral arteries of aged NOX5 KI and WT mice; assay: Wire myograph, relaxing responses of isolated femoral arteries; design: species or system mouse; conditions: for Reversal of impaired Ach-induced relaxation by antioxidant: femoral arteries of aged KI mice contracted with 10 μM phenylephrine, Ach 10 μM; for Relaxation induced by BAY 60-2770, WT versus KI / Endothelium-independent relaxation induced by PAPA/NO, WT versus KI: femoral arteries, 0.01-10 μM
# Description: After mice were sacrificed, thoracic aortae, femoral and saphenous arteries were dissected free from perivascular adipose tissue and mounted in a wire myograph (DMT, Aarhus, DK). The organ chamber was filled with Krebs-Ringer bicarbonate-buffered salt solution (KRB) that was continuously aerated with 95% O2/5% CO2 and maintained at 37° C. Passive stretch procedure was performed to mimic the physiologically relevant internal lumen diameter as previously described. Arterial contractile and relaxing responses were recorded at lumen diameters corresponding to a distending pressure of 100 mmHg in thoracic aorta and femoral artery and at 90% of this diameter in the resistance-sized saphenous artery. […] The diameter tension relationships were constructed according to the law of Laplace for a cylindrical tube: P=T/R (with P for transmural pressure, T for wall tension and R for the lumen radius of the tube). Consequently, wall stiffness can be determined equally by recording 1) changes in tension in response to imposed changes in radius (wire myography) or 2) changes in radius in response to changes in transmural pressure (pressure myography). Here we used the former approach because it has a higher throughput than the latter. Stress-strain relationships and even better “incremental elastic (Young's) modulus” (which require additional recording of wall thickness) only come into play to discriminate between structural and material property contributions to changes in arterial stiffness. Part of the isolated thoracic aorta was studied in the absence and part in the continuous presence of 10 μM indomethacin to inhibit production of prostaglandins that can act as endothelium-derived vasoactive factors in this vessel. The vessels were tested for their contractile response to 40 mM K+, concentration-response curves of phenylephrine (0.01 to 100 μM) and endothelin-1 (1-256 nM) followed by acetylcholine (Ach) (0.01 to 100 μM), PAPA/NO (0.01-10 μM) or Bay60-2770 (0.01-10 μM)-induced relaxations. The wall tension of the vessel segment was continuously recorded with LabChart Pro (ADInstruments, Oxford, UK).
# [2] = system: elevated blood pressure induced by NOS uncoupling; conditions: cited from earlier work
# [3] = system: thoracic aortae of aged NOX5 KI and WT mice; assay: Wire myograph, responses of isolated thoracic aortae; design: species or system mouse; conditions: for Endothelium-independent relaxation induced by PAPA/NO, WT versus KI: thoracic aortae with/without indomethacin, 0.01-10 μM
# Description: (§1) After mice were sacrificed, thoracic aortae, femoral and saphenous arteries were dissected free from perivascular adipose tissue and mounted in a wire myograph (DMT, Aarhus, DK). The organ chamber was filled with Krebs-Ringer bicarbonate-buffered salt solution (KRB) that was continuously aerated with 95% O2/5% CO2 and maintained at 37° C. Passive stretch procedure was performed to mimic the physiologically relevant internal lumen diameter as previously described. Arterial contractile and relaxing responses were recorded at lumen diameters corresponding to a distending pressure of 100 mmHg in thoracic aorta and femoral artery and at 90% of this diameter in the resistance-sized saphenous artery. […] The diameter tension relationships were constructed according to the law of Laplace for a cylindrical tube: P=T/R (with P for transmural pressure, T for wall tension and R for the lumen radius of the tube). Consequently, wall stiffness can be determined equally by recording 1) changes in tension in response to imposed changes in radius (wire myography) or 2) changes in radius in response to changes in transmural pressure (pressure myography). Here we used the former approach because it has a higher throughput than the latter. Stress-strain relationships and even better “incremental elastic (Young's) modulus” (which require additional recording of wall thickness) only come into play to discriminate between structural and material property contributions to changes in arterial stiffness. Part of the isolated thoracic aorta was studied in the absence and part in the continuous presence of 10 μM indomethacin to inhibit production of prostaglandins that can act as endothelium-derived vasoactive factors in this vessel. […] The wall tension of the vessel segment was continuously recorded with LabChart Pro (ADInstruments, Oxford, UK).
# [4] = system: saphenous arteries of aged NOX5 KI and WT mice; assay: Wire myograph, relaxing responses of isolated saphenous arteries; design: species or system mouse; conditions: for Endothelium-independent relaxation induced by PAPA/NO, WT versus KI: saphenous arteries, 0.01-10 μM
# Description: as §1
# [5] = system: femoral arteries of aged NOX5 KI mice; assay: Superoxide formation, DHE staining of femoral artery cryo-sections; design: species or system mouse; conditions: pre-treatment with 500 μM L-NAME for 30 min at 37° C.
# Description: Superoxide was measured in femoral arteries using the florescence dye dihydroethidium (DHE) (Thermo Scientific Technology, The Netherlands). Frozen femoral arteries cryo-sections were fixated in 4% paraformaldehyde (PFA) in PBS and then incubated with 2 μM DHE for 30 minutes at 37° C. After three washing steps with PBS, slices were incubated with DAPI (Sigma-Aldrich, The Netherlands) […] for 10 min. Sections were washed in PBS and then mounted using a Dako Fluorescence Mounting Medium ([…], Agilent Technologies). Immunofluorescent signals were viewed using a Leica DM13000 B fluorescence microscope. Some arteries were pre-treated with 500 μM L-NAME for 30 min at 37° C. before performing the DHE staining.
# elevated blood pressure = conditions: by improving endothelial function; cited from earlier work
compound,measurement,setting,value
CC1(C)CC(O)CC(C)(C)N1[O] [tempol],Reversal of impaired Ach-induced relaxation by antioxidant,[1]; 100 μM tempol,not reversed
CC(=O)N[C@@H](CS)C(=O)O [N-acetylcysteine],Reversal of impaired Ach-induced relaxation by antioxidant,[1]; 10 μM N-acetylcysteine,not reversed
O=C(O)CCCCN(CCc1cc(F)ccc1OCc1ccc(-c2ccc(C(F)(F)F)cc2)cc1)Cc1ccc(C(=O)O)cc1 [BAY 60-2770],"Relaxation induced by BAY 60-2770, WT versus KI",[1],Neither the PAPA/NO (FIGS. 13 A-C) nor the BAY 60-2770 response (FIG. 11 D) differed between WT and KI mice
same,"Relaxation induced by BAY 60-2770, WT versus KI",[1]; listed as Bay60-2770,did not differ
C[C@H](O)C(=O)C1=Nc2c(nc(N)[nH]c2=O)NC1 [sepiapterin],Ach-induced relaxation after pre-treatment with sepiapterin,"[1]; femoral arteries of aged KI mice pre-contracted with phenylephrine, sepiapterin 100 μM, compared with WT",improved relaxation in KI; also recorded: greatly improved and became indistinguishable from those in WT
same,"Blood pressure lowering, preclinical",[2],lower elevated blood pressure induced by NOS uncoupling
COC(=O)[C@@H](N)CCCNC(=N)N[N+](=O)[O-] [L-NAME],Effect of L-NAME on Ach-induced relaxation,"[1]; femoral arteries of aged KI and WT mice contracted with 256 nM endothelin-1, 100 μM L-NAME",reversed
same,Effect of L-NAME on Ach-induced relaxation,"[3]; thoracic aortae of aged KI and WT mice contracted with 256 nM endothelin-1, 100 μM L-NAME",reversed
same,Effect of L-NAME on Ach-induced relaxation,"[4]; saphenous arteries of aged KI and WT mice contracted with endothelin-1, 100 μM L-NAME",did not modify the relaxing effects of Ach
same,"Superoxide formation (DHE staining), increase in KI versus WT",[5],inhibited
Nc1nc2ncc(CNc3ccc(C(=O)N[C@@H](CCC(=O)O)C(=O)O)cc3)nc2c(=O)[nH]1 [folic acid],"Reduction of elevated blood pressure, clinical",elevated blood pressure,clinically effective to reduce elevated blood pressure
CCCN(CCCN)/[N+]([O-])=N/O [PAPA/NO],"Endothelium-independent relaxation induced by PAPA/NO, WT versus KI",[1],Neither the PAPA/NO (FIGS. 13 A-C) nor the BAY 60-2770 response (FIG. 11 D) differed between WT and KI mice
same,"Endothelium-independent relaxation induced by PAPA/NO, WT versus KI",[1]; listed as PAPA NO,did not differ
same,"Endothelium-independent relaxation induced by PAPA/NO, WT versus KI",[3],Neither the PAPA/NO (FIGS. 13 A-C) nor the BAY 60-2770 response (FIG. 11 D) differed between WT and KI mice
same,"Endothelium-independent relaxation induced by PAPA/NO, WT versus KI",[3]; listed as PAPA NO,did not differ
same,"Endothelium-independent relaxation induced by PAPA/NO, WT versus KI",[4],Neither the PAPA/NO (FIGS. 13 A-C) nor the BAY 60-2770 response (FIG. 11 D) differed between WT and KI mice
same,"Endothelium-independent relaxation induced by PAPA/NO, WT versus KI",[4]; listed as PAPA NO,did not differ
